Results on eight molecules are retold here after patent US5395841A, “4-benzylpiperidines for treating phychosis” (Ferrer Internacional, S.A., priority 1992, dated 1995).

pIC50: −log10 of the molar value. Counter-ions that a name gives are not always drawn.

This test deals with sigma-receptor (Cavia porcellus, UniProt Q60492). Kind of test: Sigma-receptor binding ([3H]3-PPP displacement, membranes of guinea pig total brain). The note with it: 2 nM (+)[3H]3-PPP, guinea pig total brain membrane, 90 min at 25° C., pH 8.5 TRIS.HCl, eleven concentrations; read-out: IC50 (inhibitory concentration 50%).
Chain of sigma-receptor (Q60492 whole entry): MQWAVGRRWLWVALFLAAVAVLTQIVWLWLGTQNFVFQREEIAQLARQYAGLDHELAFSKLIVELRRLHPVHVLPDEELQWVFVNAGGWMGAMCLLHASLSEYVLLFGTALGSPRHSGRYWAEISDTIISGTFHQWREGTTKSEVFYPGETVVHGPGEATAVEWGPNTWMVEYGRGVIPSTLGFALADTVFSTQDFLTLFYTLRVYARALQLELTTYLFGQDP
In the case of `Fc1ccc(CC2CCN(CCCOc3ccc(F)cc3)CC2)cc1` [Example 11, 4-(p-Fluorobenzyl)-1-[3-(p-fluorophenoxy)propyl]piperidine hydrochloride], the pIC50 is 8.38.

Take `O=C1CC2(CCCC2)CC(=O)N1CCCCN1CCC(Cc2ccc(F)cc2)CC1` [Example 10, 8-[4-[4-(p-Fluorobenzyl)-1-piperidinyl]butyl]-8-azaspiro[4,5] decane-7,9-dione hydrochloride]: the pIC50 is 8.72.

`OC(CCCN1CCC(Cc2ccccc2)CC1)c1ccc(F)cc1` (centres unmarked) [Example 6, 4-Benzyl-1-(4-hydroxi-4-p-fluorophenyl)butylpiperidine hydrochloride]: the pIC50 was 8.83.

With `CCCN1CCC(Cc2ccc(F)cc2)CC1` [Example 1, 4-p-Fluorobenzyl-1-propylpiperidine hydrochloride], the pIC50 was 8.53.

As to `OC(CCCN1CCC(Cc2ccc(F)cc2)CC1)c1ccc(F)cc1` (centres unmarked) [Example 7, 4-(p-Fluorobenzyl)-1-(4-fluorophenyl-4-hydroxy)butylpiperidine hydrochloride], the pIC50 was 8.06.

`Fc1ccc(CC2CCN(CCCC(c3ccc(F)cc3)c3ccc(F)cc3)CC2)cc1` [Example 9, 4-(p-Fluorobenzyl)-1-[4,4-bis(p-fluorophenyl)butyl]piperidine tribenzoate]: the pIC50 was 7.14.

As to `O=C(CCCN1CCC(Cc2ccc(F)cc2)CC1)c1ccc(F)cc1` [Example 5, 4-p-Fluorobenzyl-1-(4-p-fluorophenyl-4-oxo)butylpiperidine hydrochloride], the pIC50 is 8.62.

Take `Fc1ccc(CC2CCN(CCCOc3ccc(F)cc3)CC2)cc1` [Example 8, 4-(p-Fluorobenzyl)-1-[3-(p-fluorophenoxy)propyl]piperidine dibenzoate]: the pIC50 was 8.35.
